Assay results: paper PMC5641083, “Blockage of FOXP3 transcription factor dimerization and FOXP3/AML1 interaction inhibits T regulatory cell activity: sequence optimization of a peptide inhibitor” (Oncotarget, 2017)

Experiments:
[1] = tested on: murine Treg cells; type: cell-based, BALB/c mice
Excerpt: Results shown in Figures 1–3 correspond to cell-free assays where peptides can interact directly with its corresponding protein partner. However, FOXP3 binding peptides need to enter into the cell in order to inhibit FOXP3 functions. Once we identified some mutants with higher capacity to bind FOXP3, we studied their capacity to inhibit the suppressor activity of natural Tregs in vitro. Thus, we activated effector T cells with anti-CD3 monoclonal antibody in the presence of Tregs, and analyzed the capacity of each peptide to restore T cell proliferation inhibited by Treg cells. […] Indeed, when results from the point-variant screening are represented as a heat map, it is clear that introduction of an alanine at positions 2, 5 and 11 improved activity of the original P60, whereas alanine mutations at positions 1, 7, 8, 9, 10 and 12 are detrimental (Figure 4C).
Isolation of murine CD4^+CD25^+, and CD4^+CD25^− T-cells was performed from murine spleen cells by using murine regulatory T-cell isolation kit (Miltenyi Biotec, Bergisch Gladbach, Germany) according to manufacturer's instructions. The purity of the resulting T-cell populations was confirmed to be > 95% by flow cytometry.
Inhibition of murine T regulatory cell function was measured in an in vitro assay of T-cell stimulation. CD25+ depleted spleen cells (10^5 cells/well) from BALB/c mice were stimulated in vitro with 2, 5 μg/ml of anti-mouse CD3 antibody (Pharmingen) in the presence/absence of purified Treg cells (10^4 cells/well). T-cell proliferation was measured 3 days later as previously described.

[2] = tested on: FOXP3-6His (native FOXP3, 1-421); test: Surface plasmon resonance, peptide binding to FOXP3-coated chip; conditions: FOXP3 coated on chip; mutants compared with original P60
Experimental: Using truncated versions of FOXP3, we attempted to identify the FOXP3 domain interacting with peptide P60, described previously by or group as a FOXP3 inhibitory peptide. Thus, besides native FOXP3 we prepared the deletion mutants FOXP3 (1-331) (lacking the C-terminus of FOXP3), FOXP3 (177-421) (lacking the N-terminus) and FOXP3 (1-177) (encompassing only the N-terminus of FOXP3) (Figure 1A). They were coated on a chip for SPR experiments.
Screening of peptide binding to FOXP3 was performed by surface plasmon resonance (SPR) using ProteOn XPR36 (Bio-Rad, Hercules CA, USA) optical biosensor. Recombinant protein FOXP3-6His and the indicated truncated versions of FOXP3 were produced and purified from E-coli and immobilized covalently onto a GLM sensor chip (Bio-Rad) using sulfo-NHS and EDC (Bio-Rad) coupling reagents. After protein immobilization, chip surface was treated with ethanolamine to deactivate the excess of reactive esters. Individual peptide solutions (1–20 μM) were injected by triplicate in running buffer (Phosphate buffered saline, 0.005% (v/v) Tween 20, pH 7.4) at a flow of 30 μl/min. The interspot signal (obtained in the chip surface not immobilized with protein) was used as reference.

[3] = target: T1, FOXP3/FOXP3 homodimerization (GST-FOXP3 and FOXP3-His) (Homo sapiens, UniProt Q9BZS1); test: AlphaScreen FOXP3 homodimerization assay; type: biochemical; conditions: GST-FOXP3 40 nM, FOXP3-His 300 nM
T1 construct: made in house; host or cells: E. coli
T1 sequence (Q9BZS1 1-421): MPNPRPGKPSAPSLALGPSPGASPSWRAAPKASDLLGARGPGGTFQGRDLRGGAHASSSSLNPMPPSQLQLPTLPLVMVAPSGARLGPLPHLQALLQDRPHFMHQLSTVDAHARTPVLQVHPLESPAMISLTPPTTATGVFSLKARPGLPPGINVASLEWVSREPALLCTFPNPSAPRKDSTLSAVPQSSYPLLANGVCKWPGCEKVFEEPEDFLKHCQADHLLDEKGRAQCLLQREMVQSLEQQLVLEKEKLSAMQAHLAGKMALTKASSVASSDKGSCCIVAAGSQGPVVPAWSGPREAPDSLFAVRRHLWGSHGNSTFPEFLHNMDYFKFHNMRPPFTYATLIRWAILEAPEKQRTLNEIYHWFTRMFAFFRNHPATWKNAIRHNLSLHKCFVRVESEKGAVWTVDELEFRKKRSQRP
Excerpt: (§1) AML1 is required for IL-2 and IFN-γ gene expression in conventional CD4+ T cells and its interaction with FOXP3 is needed for the immunosuppressive activity of Tregs. On the other hand, it has been described that the leucine zipper region is necessary and sufficient to mediate FOXP3 homo-dimerization, which is required for its function as a transcriptional regulator [13, 15, 20]. Thus, since P60 binds to this FOXP3 intermediate region, we analyzed if it could act as a decoy molecule to inhibit FOXP3 homodimerization or the FOXP3-AML1 heterodimerization. The capacity of FOXP3 to homodimerize was measured using the […] assay platform AlphaScreen™ (Perkin Elmer). Previous protein-cross titration experiment using different concentrations of FOXP3-6His (from 1000 to 0 nM) and GST-FOXP3 (from 300 to 0 nM) allowed us to define the optimal protein concentrations to analyze FOXP3 homodimerization (Figure 2A). […] We also tested if GST tagged FOXP3 was able to interact with AML1 protein tagged with 6 His at the N-terminus. As shown in the cross titration experiments in Figure 2C, a specific FOXP3-AML1 heterodimerization was visualized as an increase in the AlphaScreen signal.
(§2) FOXP3/AML1 heterodimerization, as well as FOXP3/FOXP3 homodimerization were analyzed by Alphascreen technology according to the manufacturer's instructions (Perkin Elmer, Benelux) as previously described.

[4] = target: T2, FOXP3/AML1 interaction (Homo sapiens, UniProt Q9BZS1); test: AlphaScreen FOXP3/AML1 heterodimerization assay; type: biochemical
T2 sequence (Q9BZS1 1-431): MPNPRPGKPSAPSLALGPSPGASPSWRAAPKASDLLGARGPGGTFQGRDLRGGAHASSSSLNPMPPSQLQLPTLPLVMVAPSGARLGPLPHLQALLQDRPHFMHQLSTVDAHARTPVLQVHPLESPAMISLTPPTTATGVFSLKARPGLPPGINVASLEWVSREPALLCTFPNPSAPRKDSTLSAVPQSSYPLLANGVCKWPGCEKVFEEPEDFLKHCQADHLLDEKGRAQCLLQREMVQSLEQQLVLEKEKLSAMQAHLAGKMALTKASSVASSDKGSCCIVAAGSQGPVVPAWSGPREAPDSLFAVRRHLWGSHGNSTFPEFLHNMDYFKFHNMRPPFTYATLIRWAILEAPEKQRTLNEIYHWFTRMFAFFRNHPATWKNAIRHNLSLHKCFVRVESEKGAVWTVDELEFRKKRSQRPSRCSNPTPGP
Excerpt: as §1, §2

[5] = tested on: CT26 tumor cells; conditions: AH1 in IFA, P60 50 nanomol/mice/day i.p. day 0 to day 9, 5 × 10^5 cells; cited from earlier work

In the case of H-RDFQSFRKMWPFFAM-OH [P60], the IC50 [1] is reported as 38.3 µM, the “FOXP3 binding capacity by SPR (in words)” value [2] is reported as “bound with high affinity” and the “Inhibition of FOXP3 homodimerization (in words)” value [3] is reported as “able to impair FOXP3 dimerization in a dose dependent manner”. For the same substance, the “Inhibition of FOXP3-AML1 heterodimerization (in words)” value [4] was “able to reduce the signal in a dose dependent manner” and the “Protection against CT26 tumor challenge (in words)” value [5] was “protected mice from CT26 tumor challenge”.
